From patent US10689425B2, “Collagen-binding synthetic peptidoglycans, preparation, and methods of use” (Purdue Research Foundation, priority 2008, dated 2020)

Experiments:
[1] = test system: Human coronary artery smooth muscle cells (HCA SMC); experiment: Gel compaction by cells seeded in collagen gels; type: cell-based; settings: Day 7
Protocol: Human coronary artery smooth muscle cells (HCA SMC) (Cascade Biologics) were cultured in growth medium (Medium 231 supplemented with smooth muscle growth factor). Cells from passage 3 were used for all experiments. Differentiation medium (Medium 231 supplemented with 1% FBS and 1× pen/strep) was used for all experiments unless otherwise noted.
Collagen gels were prepared with each additive as described with the exception that the 1×PBS example addition was omitted to accommodate the addition of cells in media. After incubating on ice for 30 min, HCA SMCs in differentiation medium were added to the gel solutions to a final concentration of 1×10^6 cells/mL. Gels were formed in quadruplicate in 48-well non-tissue culture treated plates (Costar) for 6 hrs before adding 500 μL/well differentiation medium. Gels were freed from the well edges after 24 hrs. Medium was changed every 2-3 days and images for compaction were taken at the same time points using a Gel Doc System (Bio-Rad). The cross-sectional area of circular gels correlating to degree of compaction was determined using ImageJ software (NIH). Gels containing no cells were used as a negative control and cells in collagen gels absent additive were used as a positive control. By day 10 all gels had compacted to approximately 10% of the original gel area, and differences between additives were small.

collagen type I gels = molecular target: T1, collagen type I gels (Bos taurus, UniProt P02453+P02465); experiment: Viscoelastic characterization of collagen type I gels (rheometer); settings: 5:1, 10:1 and 30:1 collagen:additive; 0.1-1.0 Hz, 1.0 Pa
T1 construct: purchased Inamed, Freemont, Calif; (Nutragen)
Protocol: The PTFE printing restricted gels to the 20 mm diameter wettable region. Gels were formed in a humidified incubator at 37° C. overnight prior to mechanical testing. Slides were clamped on the rheometer stage of a AR-G2 rheometer with 20 mm stainless steel parallel plate geometry (TA Instruments, New Castle, Del.), and the 20 mm stainless steel parallel plate geometry was lowered to a gap distance of 600 μm using a normal force control of 0.25N to avoid excessive shearing on the formed gel. An iterative process of stress and frequency sweeps was performed on gels of collagen alone to determine the linear range. All samples were also tested over a frequency range from 0.1 Hz to 1.0 Hz and a controlled stress of 1.0 Pa. Statistical analysis using Design Expert software ([…], Minneapolis, Minn.) was performed at each frequency and a 5-way ANOVA used to compare samples. […] Viscoelastic characterization was performed as described in EXAMPLE 17 on gels formed with varying ratios of collagen to additive (treatment).

HCA SMCs = experiment: Elastin content by Fastin elastin assay; type: cell-based, Human; settings: gels cultured for 10 days
Protocol: Differentiation medium was changed every three days and gels were cultured for 10 days. […] Gels were rinsed in 1×PBS overnight to remove serum protein, and gels were tested for elastin content using the Fastin elastin assay per manufacturers protocol (Biocolor, County […].). Briefly, gels were solubilized in 0.25 M oxalic acid by incubating at 100° C. for 1 hr. Elastin was precipitated and samples were then centrifuged at 11,000×g for 10 min. The solubilized collagen supernatant was removed and the elastin pellet was stained by Fastin Dye Reagent for 90 min at room temperature. Samples were centrifuged at 11,000×g for 10 min and unbound dye in the supernatant was removed. Dye from the elastin pellets was released by the Fastin Dye Dissociation Reagent, and 100 μL samples were transferred to a 96-well plate (Costar). Absorbance was measured at 513 nm, and elastin content was calculated from an α-elastin standard curve.

T1 sequence (P02453 162-1217 limits assumed): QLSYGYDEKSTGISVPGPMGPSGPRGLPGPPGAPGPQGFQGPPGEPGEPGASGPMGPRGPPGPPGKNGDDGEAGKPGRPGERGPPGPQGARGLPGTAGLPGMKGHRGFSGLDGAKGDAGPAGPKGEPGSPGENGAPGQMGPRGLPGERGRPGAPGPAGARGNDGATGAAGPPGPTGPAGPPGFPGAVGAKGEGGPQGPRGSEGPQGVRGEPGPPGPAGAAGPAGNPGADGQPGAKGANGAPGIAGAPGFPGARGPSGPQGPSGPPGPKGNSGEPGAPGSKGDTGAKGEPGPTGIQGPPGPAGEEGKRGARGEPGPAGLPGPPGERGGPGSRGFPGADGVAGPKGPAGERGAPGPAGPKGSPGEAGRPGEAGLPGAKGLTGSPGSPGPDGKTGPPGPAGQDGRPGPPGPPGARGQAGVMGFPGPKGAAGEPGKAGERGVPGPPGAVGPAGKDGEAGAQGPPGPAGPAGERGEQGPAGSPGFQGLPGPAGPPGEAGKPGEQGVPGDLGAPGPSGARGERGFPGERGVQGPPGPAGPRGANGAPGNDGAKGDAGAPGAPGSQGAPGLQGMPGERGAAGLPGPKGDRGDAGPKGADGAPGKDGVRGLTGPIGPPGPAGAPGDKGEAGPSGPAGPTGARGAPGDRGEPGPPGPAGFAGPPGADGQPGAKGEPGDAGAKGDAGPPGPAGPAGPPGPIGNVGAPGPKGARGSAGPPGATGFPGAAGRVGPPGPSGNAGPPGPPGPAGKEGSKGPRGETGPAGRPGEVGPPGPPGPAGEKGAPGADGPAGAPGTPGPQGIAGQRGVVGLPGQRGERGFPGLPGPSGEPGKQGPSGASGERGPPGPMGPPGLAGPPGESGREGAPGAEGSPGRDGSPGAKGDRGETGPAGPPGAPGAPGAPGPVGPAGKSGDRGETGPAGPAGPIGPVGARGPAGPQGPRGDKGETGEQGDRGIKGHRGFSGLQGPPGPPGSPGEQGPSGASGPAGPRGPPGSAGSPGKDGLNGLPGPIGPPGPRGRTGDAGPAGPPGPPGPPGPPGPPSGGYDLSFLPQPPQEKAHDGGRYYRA
T1 sequence (P02465 80-1117 limits assumed): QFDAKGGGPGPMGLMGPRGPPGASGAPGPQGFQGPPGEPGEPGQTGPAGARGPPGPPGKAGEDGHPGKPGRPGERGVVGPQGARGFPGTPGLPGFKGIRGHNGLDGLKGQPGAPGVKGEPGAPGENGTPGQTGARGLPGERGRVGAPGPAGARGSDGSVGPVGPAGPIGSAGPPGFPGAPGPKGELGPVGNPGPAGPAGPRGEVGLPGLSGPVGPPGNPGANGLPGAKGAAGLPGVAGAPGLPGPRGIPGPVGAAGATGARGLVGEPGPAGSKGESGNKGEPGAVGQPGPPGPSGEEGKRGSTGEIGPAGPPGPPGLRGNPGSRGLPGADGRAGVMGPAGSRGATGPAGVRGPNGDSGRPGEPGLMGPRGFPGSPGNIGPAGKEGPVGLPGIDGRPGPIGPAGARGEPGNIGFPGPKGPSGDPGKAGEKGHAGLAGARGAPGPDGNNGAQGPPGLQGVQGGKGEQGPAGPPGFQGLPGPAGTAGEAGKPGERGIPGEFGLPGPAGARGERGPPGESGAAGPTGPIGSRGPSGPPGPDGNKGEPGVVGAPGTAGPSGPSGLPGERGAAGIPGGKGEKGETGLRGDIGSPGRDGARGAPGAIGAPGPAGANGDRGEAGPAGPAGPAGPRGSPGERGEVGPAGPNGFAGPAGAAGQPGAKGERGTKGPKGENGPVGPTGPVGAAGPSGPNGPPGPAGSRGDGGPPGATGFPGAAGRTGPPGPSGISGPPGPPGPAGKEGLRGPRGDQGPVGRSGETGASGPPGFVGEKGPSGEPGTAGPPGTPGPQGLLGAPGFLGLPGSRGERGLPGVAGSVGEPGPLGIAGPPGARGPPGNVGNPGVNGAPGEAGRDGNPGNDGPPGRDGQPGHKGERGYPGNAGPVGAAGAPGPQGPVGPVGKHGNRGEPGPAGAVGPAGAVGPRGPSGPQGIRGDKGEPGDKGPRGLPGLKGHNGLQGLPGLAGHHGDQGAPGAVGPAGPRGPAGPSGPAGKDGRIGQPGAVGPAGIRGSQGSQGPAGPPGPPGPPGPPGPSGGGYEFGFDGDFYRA

## dermatan sulfate [DS]
[1]
  Gel compaction, statistical significance: significant compared to collagen
Collagen type I gels
  Stiffness of collagen gel (storage modulus G'): increase the stiffness of the resulting collagen gel over untreated collagen
HCA SMCs
  Elastin production: significantly decreased elastin production over untreated collagen
